Measured values published in article PMC7870626, “Neurotoxicity and underlying cellular changes of 21 mitochondrial respiratory chain inhibitors” (Archives of Toxicology, 2021).
Read-outs that look alike come from different tables or passages of the source.

Tests used:
LUHMES cells [1] = assay: NeuriTox test: neurite area and viability, 24 h; assay type: cell-based, human
Method: (§1) The NeuriTox test was performed as previously described (Delp et al. [2018b]; Krug et al. [2013a]; Stiegler et al. [2011]). Briefly, cells differentiated for 48 h were re-seeded into 96-well plates at a density of 100,000 cells/cm^2 in DM without cAMP and GDNF, and treated 1 h after seeding for 24 h. Subsequently, multiple endpoints were determined, e.g., neurite outgrowth (i.e., NeuriTox test), resazurin reduction, intracellular ATP content, gene expression levels from TempO-Seq analysis, and proteasomal activity. For the 120 h exposure scenario, LUHMES cells were differentiated for another 3 days after reseeding before they were treated on day 5 (d5) and d7 by a half medium exchange. Endpoints were determined on d10 of differentiation.
Image acquisition and analysis was performed as described previously (Krug et al. [2013a]; Schildknecht et al. [2013]; Stiegler et al. [2011]). In brief, cells were live-stained with 1 µg/ml Hoechst H-33342 and 1 µM calcein-AM and image acquisition was done by an automated high content imager (Cellomics, Waltham, MA, USA). Cell viability was determined as ratio of live cells (cell bodies being Calcein- and Hoechst-positive) relative to the total amount of cells (Hoechst-positive cell bodies). Neurite area was calculated by subtracting the somatic area (Hoechst-positive area plus surrounding) from the calcein-positive area.

[2] = tested on: MRC complex (cI, cII or cIII); assay: HepG2-based MRC complex assay in permeabilized cells (earlier study); assay type: cell-based; conditions: NeuriTox neurite EC25 relative to complex assay EC25 in permeabilized cells; respirometric data from HepG2-based assays ref van der Stel et al. 2020
LUHMES cells [3] = assay: Intracellular ATP content after NeuriTox exposure; assay type: cell-based; conditions: Homo sapiens, 24 h
Method: as §1
Plates from the NeuriTox test were further used after imaging for determination of alternative endpoints. Intracellular ATP was determined as described earlier (Delp et al. [2019]). In brief, CellTiterGlo 2.0 assay mix (Promega) containing luciferase was added after imaging, and luminescence was recorded. For the determination of resazurin reduction, a 10 × resazurin stock solution was added after imaging to the medium (final resazurin concentration 2 µg/ml) (Delp et al. [2018a]). After 60 min incubation, resazurin fluorescence was recorded (ex: 530 nm, em: 590 nm). Background-corrected data was used for further analysis.

U2OS cells = assay: cells; assay type: cell-based; conditions: Homo sapiens, 24 h
Method: A cell suspension of 100,000 cells/ml was prepared in assay medium, and white 384-well plates were filled with 30 µl/well cell suspension. Twenty-four hours after seeding, a dilution series of test compound, as well as positive and negative controls, were added to the cells. After 24 h exposure, the medium was removed, and 10 µl of Triton X-100 lysis buffer was added to each well. The luminescent signal was determined in a luminometer by injecting BDS Illuminate Mix and measuring the light emission. The Cytotox CALUX cell line constitutively expresses a high level of luciferase protein; the light emission is therefore proportional to the cell number of live cells, and its decrease can be used as measure of cytotoxicity. The light emission generated by cells exposed to vehicle control was set to 100%, and the luminescence of cells exposed to the positive control toxicant tributyltin acetate [100 µM] was set to 0%. The light output of the cells exposed to different concentrations of test compounds was scaled accordingly.

HepG2 cells = assay: HepG2-based respirometry, total cell respiration (earlier study); conditions: NeuriTox neurite EC25 relative to cell respiration EC25; respirometric data from HepG2-based assays ref van der Stel et al. 2020
proteasome = assay: Proteasomal activity (KE3 assay) in LUHMES cells; assay type: cell-based, human; conditions: for Ratios of EC25 KE4/KE3 proteasomal: NeuriTox neurite EC25 relative to proteasomal activity EC25, LUHMES
Method: Activity of the proteasome was quantified as described in (Gutbier et al. [2018b]). Briefly, after exposure, culture medium was replaced by assay buffer containing a cell-permeable proteasomal substrate (MeOSuc-Gly-Leu-Phe-AMC, 25 µM (Bachem, Bubendorf, Switzerland) in HBSS). Its AMC-fluorescence (ex: 360 nm, em: 465 nm) increases with proteasomal activity and was monitored for 90 min. Background-corrected data were used for further analysis.

SH-SY5Y cells = assay: Mitochondrial membrane potential (rhodamine 123), KE2 assay; assay type: cell-based, human; conditions: for EC25: Homo sapiens; for Ratios of EC25 KE4/KE2 MMP: NeuriTox neurite EC25 relative to SH-SY5Y MMP EC25
Method: Cells were plated at a cell density of 29,500 cells/cm^2 and handled as described above for the neurite SH-SY5Y degeneration. On d6 of differentiation, 50% of the medium was replaced by differentiation medium containing 2 µM Rhodamine 123 (ThermoFisher). After 45 min of preloading at 37 °C with 5% CO2 in darkness, the Rhodamine 123 solution was completely removed and cells were carefully washed once with 200 µl DMEM:F12. Subsequently, 50 µl differentiation medium per well were added followed by the addition of 50 µl/well of test compounds in medium. After 24 h of exposure to the test compounds, the nuclei were stained for 30 min with 20 µL of a solution containing 20 µM Hoechst 33342, and the images were then acquired with a 10 × objective lens using the ImageXpress® Micro (Molecular Devices) high content microplate imager. Nuclei were evaluated in the DAPI channel (excitation 377 ± 50 nm, emission 447 ± 60 nm), whereas Rhodamine 123 fluorescence was detected in the FITC channel (excitation 475 ± 34 nm, emission 536 ± 40 nm). Analysis of the Hoechst 33,342 and Rhodamine 123 fluorescence was performed using the MetaXpress® Software (Molecular Devices) with the Transfluor HT plug-in and the parameters nuclei (for Hoechst-33342) and integrated granule intensity (for Rhodamine 123). Mitochondrial membrane potential (MMP) was quantified as the total fluorescence intensity of Rhodamine 123 in relation to the number of Hoechst-stained nuclei.

[4] = Homo sapiens, NeuriTox exposure scheme, 24 h, read-out: LUHMES 24 h EC25 NA (neurite area) (converted)
[5] = Homo sapiens, NeuriTox exposure scheme, 24 h, read-out: LUHMES 24 h EC25 V (viability) (converted)
[6] = Homo sapiens, NeuriTox test, neurite outgrowth impairment, LUHMES 24 h, read-out: EC25 KE4 (AO) Neurite toxicity (converted)
[7] = NeuriTox exposure scheme, read-out: LUHMES 24 h EC25 ATP (converted)
[8] = U2OS osteosarcoma cells, luminescence of constitutively expressed luciferase, read-out: Cytotox EC25 U2OS (converted)
[9] = SH-SY5Y differentiated 6 days, treated 24 h, rhodamine-123, read-out: pEC25 MMP (concentration where MMP was reduced by 25%) (converted)

| Compound | Offset between neurite endpoint (LUHMES/SH-SY5Y) and U2OS viability (LUHMES cells [1]) | EC25 (LUHMES cells [1]; [4]) [µM] | EC25 (LUHMES cells [1]; [5]) [µM] | EC25 (LUHMES cells [1]; [6]) [µM] | Ratios of EC25 KE4/KE1 complex assay [2] | EC25 (LUHMES cells [3]; [7]) [µM] | EC25 (U2OS cells; [8]) [µM] | Ratios of EC25 KE4/KE1 total respiration (HepG2 cells) | Ratios of EC25 KE4/KE3 proteasomal (proteasome) | EC25 (SH-SY5Y cells; [9]) [µM] | Ratios of EC25 KE4/KE2 MMP (SH-SY5Y cells) | also measured |
| --- | --- | --- | --- | --- | --- | --- | --- | --- | --- | --- | --- | --- |
| CCCCCC[C@H]1C(=O)O[C@H](C)[C@H](NC(=O)c2cccc(NC=O)c2O)C(=O)O[C@@H](C)[C@@H]1OC(=O)CC(C)C [Antimycin A] | potentially strong neurite-specific toxicant | 15.8 | > 50.1 | 15.8 | 1580 | 25.1 | 100 | 1580 | 1.1 | 0.0631 | 257 | – |
| Cc1ccc(-c2c(Cl)nc(C#N)n2S(=O)(=O)N(C)C)cc1 [Cyazofamid] | – | 50.1 | > 50.1 | 50.1 | < 5 | > 50.1 | 100 | – | – | 0.2 | 225 | Precipitation in the assay (LUHMES cells [1]; LUHMES NeuriTox concentration range): precipitate in the active concentration range |
| COc1cc2c(cc1OC)[C@@H]1C(=O)c3ccc4c(c3O[C@@H]1CO2)C=CC(C)(C)O4 [Deguelin] | > tenfold offset | 3.98 | 50.1 | 3.98 | 250 | 10 | > 50.1 | 32 | 0.7 | 0.316 | 13 | EC50 (LUHMES cells [1]; Homo sapiens, read-out: EC10V (10% reduction of viability), NeuriTox assay, LUHMES 24 h): 13 µM |
| COc1cc(CNC(=O)CCCC/C=C/C(C)C)ccc1O [Capsaicin] | – | > 50.1 | > 50.1 | – | – | > 50.1 | 63.1 | – | – | > 10 | – | – |
| CCOCCc1ccc(OCCN=c2[nH]cnc(CC)c2Cl)c(C)c1C [Pyrimidifen] | – | 15.8 | 39.8 | 15.8 | 15850 | 20 | 100 | 1260 | 1.1 | 0.794 | 21 | – |
| Cc1ccccc1C(=O)Nc1cccc(OC(C)C)c1 [Mepronil] | – | 100 | > 100 | > 100 | > 5.0 | > 100 | > 100 | – | > 0.8 | 5.01 | – | – |
| COC(=O)N(OC)c1ccccc1COc1ccn(-c2ccc(Cl)cc2)n1 [Pyraclostrobin] | – | 25.1 | > 50.1 | 25.1 | 400 | 12.6 | > 100 | 100 | 0.7 | 0.316 | 85 | – |
| CC1=C(C(=O)Nc2ccccc2)SCCO1 [Carboxin] | – | 79.4 | > 100 | 79.4 | 32 | > 100 | > 100 | < 8 | < 0.8 | 1.58 | 48 | Decrease of the MMP reached (SH-SY5Y cells; SH-SY5Y, 24 h, non-cytotoxic concentrations): at least 50% |
| Cc1nc(C(F)(F)F)c(C(=O)Nc2c(Br)cc(OC(F)(F)F)cc2Br)s1 [Thifluzamide] | – | 20 | 63.1 | 20 | 2.5 | 20 | 20 | < 2 | 1.1 | > 10 | – | – |
| C=C(C)[C@H]1Cc2c(ccc3c2O[C@@H]2COc4cc(OC)c(OC)cc4[C@@H]2C3=O)O1 [Rotenone] | > 100 fold | – | – | – | 7.9 | – | – | 1.3 | 0.01 | – | 2.1 | EC25 (LUHMES cells [1]; Homo sapiens, 24 h, read-out: EC25 KE4 (AO) Neurite toxicity): 0.0794 µM; EC25 (LUHMES cells [1]; Homo sapiens, 24 h, read-out: LUHMES 24 h EC25 NA (neurite area)): 0.0794 µM; EC25 (LUHMES cells [1]; Homo sapiens, 24 h, read-out: LUHMES 24 h EC25 V (viability)): > 10 µM; EC25 (LUHMES cells [3]; read-out: LUHMES 24 h EC25 ATP): 5.01 µM; EC25 (U2OS cells; U2OS, read-out: Cytotox EC25 U2OS): 31.6 µM; Potency on neurotoxicity (KE4/AO) relative to proteostasis (KE3) (proteasome; LUHMES): 100 times; Proteasomal function (in words) (proteasome; d2 LUHMES, 22 h incubation): reduced proteasome function at non-cytotoxic concentrations; EC25 (SH-SY5Y cells; SH-SY5Y, 24 h, read-out: pEC25 MMP (concentration where MMP was reduced by 25%)): 0.0398 µM |
